Columns and labels:
[1] = tested on: HCT-116; test: Cytotoxicity against human HCT-116 cells assessed as reduction in cell viability by SRB assay; type: functional, cell-based
[2] = tested on: HepG2; test: Cytotoxicity against human HepG2 cells assessed as reduction in cell viability by SRB assay; type: functional, cell-based
[3] = tested on: WI-38; test: Cytotoxicity against human WI-38 cells assessed as reduction in cell viability by SRB assay; type: cell-based
[4] = tested on: MCF7; test: cells; conditions: Homo sapiens
Description: Cytotoxicity against human MCF7 cells assessed as reduction in cell viability by SRB assay

[5] = target: Epidermal growth factor receptor (Homo sapiens, UniProt P00533); test: Inhibition of EGFR (unknown origin) by FRET assay
Sequence of Epidermal growth factor receptor (P00533 whole entry): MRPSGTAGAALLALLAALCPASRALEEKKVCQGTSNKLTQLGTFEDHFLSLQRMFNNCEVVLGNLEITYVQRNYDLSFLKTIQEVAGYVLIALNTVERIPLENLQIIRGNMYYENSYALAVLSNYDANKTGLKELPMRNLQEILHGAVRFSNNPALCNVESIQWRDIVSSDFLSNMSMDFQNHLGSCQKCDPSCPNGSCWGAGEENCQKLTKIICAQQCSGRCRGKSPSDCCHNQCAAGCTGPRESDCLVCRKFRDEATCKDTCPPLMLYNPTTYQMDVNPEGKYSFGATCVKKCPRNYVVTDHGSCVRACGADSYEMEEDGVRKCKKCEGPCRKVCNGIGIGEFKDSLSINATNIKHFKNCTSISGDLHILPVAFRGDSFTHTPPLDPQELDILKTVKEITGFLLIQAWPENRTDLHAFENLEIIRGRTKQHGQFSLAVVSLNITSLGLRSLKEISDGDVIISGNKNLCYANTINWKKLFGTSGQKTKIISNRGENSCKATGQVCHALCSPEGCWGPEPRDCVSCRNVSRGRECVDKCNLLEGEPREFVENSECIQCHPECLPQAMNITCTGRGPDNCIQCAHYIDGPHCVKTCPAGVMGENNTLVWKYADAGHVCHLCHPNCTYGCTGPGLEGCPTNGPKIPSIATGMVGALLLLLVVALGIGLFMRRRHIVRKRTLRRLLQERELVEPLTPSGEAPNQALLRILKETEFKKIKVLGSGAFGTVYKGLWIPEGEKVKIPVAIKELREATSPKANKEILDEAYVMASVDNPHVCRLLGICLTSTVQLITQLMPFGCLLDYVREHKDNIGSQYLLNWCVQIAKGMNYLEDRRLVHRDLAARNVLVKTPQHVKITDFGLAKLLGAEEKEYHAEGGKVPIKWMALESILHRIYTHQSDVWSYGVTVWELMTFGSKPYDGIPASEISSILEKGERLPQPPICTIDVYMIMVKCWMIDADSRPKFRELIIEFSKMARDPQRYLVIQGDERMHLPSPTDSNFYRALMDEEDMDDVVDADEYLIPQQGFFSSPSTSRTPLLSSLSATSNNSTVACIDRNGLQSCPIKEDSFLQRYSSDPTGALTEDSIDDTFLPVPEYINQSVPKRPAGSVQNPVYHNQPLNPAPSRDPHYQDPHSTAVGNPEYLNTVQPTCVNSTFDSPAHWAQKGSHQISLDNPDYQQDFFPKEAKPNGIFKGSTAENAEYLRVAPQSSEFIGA

[6] = tested on: HepG2; test: Induction of apoptosis in human HepG2 cells assessed as early apoptotic cells at 5 uM incubated for 24 hrs by annexin V-FITC and PI staining based flow cytometry analysis (reference value: 0.87 %); type: functional
[7] = tested on: HepG2; test: Induction of apoptosis in human HepG2 cells assessed as late apoptotic cells at 5 uM incubated for 24 hrs by annexin V-FITC and PI staining based flow cytometry analysis (reference value: 0.56 %); type: functional
[8] = tested on: HepG2; test: Induction of apoptosis in human HepG2 cells assessed as necrotic cells at 5 uM incubated for 24 hrs by annexin V-FITC and PI staining based flow cytometry analysis (reference value: 0.43 %); type: functional
[9] = tested on: HepG2; test: Induction of apoptosis in human HepG2 cells at 5 uM incubated for 24 hrs by annexin V-FITC and PI staining based flow cytometry analysis (reference value: 1.86 %); type: functional
[10] = tested on: HepG2; test: Induction of cell cycle arrest in human HepG2 cells assessed as G0/G1 phase accumulation by flow cytometry analysis (reference value: 57.36 %); type: functional
[11] = tested on: HepG2; test: Induction of cell cycle arrest in human HepG2 cells assessed as S phase accumulation by flow cytometry analysis (reference value: 36.22 %); type: functional
[12] = tested on: HepG2; test: Induction of cell cycle arrest in human HepG2 cells assessed as G2/M phase accumulation by flow cytometry analysis (reference value: 6.32 %); type: functional
[13] = tested on: HepG2; test: Induction of cell cycle arrest in human HepG2 cells assessed as preG1 phase accumulation by flow cytometry analysis (reference value: 1.86 %); type: functional
[14] = tested on: HepG2; test: Induction of apoptosis in human HepG2 cells assessed as Bax level (reference value: 27.35 pg/ml); type: functional
[15] = tested on: HepG2; test: Induction of apoptosis in human HepG2 cells assessed as Bcl2 level (reference value: 6.639 pg/ml); type: functional

| IC50 [4] [µM] | IC50 [5] [µM] | SMILES | IC50 [1] [µM] | IC50 [2] [µM] | IC50 [3] [µM] | Activity [6] [%] | Activity [7] [%] | Activity [8] [%] | Activity [9] [%] | Activity [10] [%] | Activity [11] [%] | Activity [12] [%] | Activity [13] [%] | Activity [14] [pg/mL] | Activity [15] [pg/mL] |
| --- | --- | --- | --- | --- | --- | --- | --- | --- | --- | --- | --- | --- | --- | --- | --- |
| 4.63 | 0.493 | S=C(Nc1ccc2c(c1)OCO2)Nc1c2ccccc2nc2ccccc12 | 1.71 | 2.14 | 227 | 6.14 | 8.68 | 2.43 | 17.25 | 37.12 | 25.52 | 37.36 | 17.25 | 201.7 | 4.147 |
| 160 |  | N=C(N)NS(=O)(=O)c1ccc(NC(=S)Nc2ccc3c(c2)OCO3)cc1 | 127 | 132 | 364 |  |  |  |  |  |  |  |  |  |  |
| 17 | 0.358 | Cc1c(NC(=S)Nc2ccc3c(c2)OCO3)c(=O)n(-c2ccccc2)n1C | 3.16 | 3.79 | 176 | 7.28 | 10.62 | 2.53 | 20.43 | 29.15 | 30.21 | 40.64 | 20.43 | 215.8 | 3.374 |
| 103 |  | NS(=O)(=O)c1ccc(NC(=S)Nc2ccc3c(c2)OCO3)cc1 | 86.3 | 95.7 | 325 |  |  |  |  |  |  |  |  |  |  |

The next lines start with the compound.

| SMILES | IC50 [4] [µM] | IC50 [5] [µM] | IC50 [1] [µM] | IC50 [2] [µM] | IC50 [3] [µM] | Activity [6] [%] | Activity [7] [%] | Activity [8] [%] | Activity [9] [%] | Activity [10] [%] | Activity [11] [%] | Activity [12] [%] | Activity [13] [%] | Activity [14] [pg/mL] | Activity [15] [pg/mL] |
| --- | --- | --- | --- | --- | --- | --- | --- | --- | --- | --- | --- | --- | --- | --- | --- |
| O=C(NNC(=S)Nc1ccc2c(c1)OCO2)c1ccncc1 | 25.2 |  | 5.63 | 11.6 | 184 |  |  |  |  |  |  |  |  |  |  |
| O=C1c2ccccc2C(=O)N1NC(=S)Nc1ccc2c(c1)OCO2 | 68.9 |  | 55.4 | 59.1 | 287 |  |  |  |  |  |  |  |  |  |  |
| S=C(NNc1ccccc1)Nc1ccc2c(c1)OCO2 | 7 | 8.26 | 1.11 | 1.74 | 271 |  |  |  |  |  |  |  |  |  |  |
| O=S(=O)(Nc1nccs1)c1ccc(NC(=S)Nc2ccc3c(c2)OCO3)cc1 | 11.7 | 1.62 | 2.53 | 2.99 | 201 |  |  |  |  |  |  |  |  |  |  |
| O=C(c1ccccc1)c1ccccc1NC(=S)Nc1ccc2c(c1)OCO2 | 179 |  | 171 | 167 | 435 |  |  |  |  |  |  |  |  |  |  |
| O=S(=O)(Nc1ccccn1)c1ccc(NC(=S)Nc2ccc3c(c2)OCO3)cc1 | 13.4 | 1.89 | 4.78 | 7.03 | 189 |  |  |  |  |  |  |  |  |  |  |
| S=C(NN=C(c1ccccc1)c1ccccc1)Nc1ccc2c(c1)OCO2 | 10.8 | 0.993 | 2.4 | 5.76 | 192 |  |  |  |  |  |  |  |  |  |  |
| O=S(=O)(NNC(=S)Nc1ccc2c(c1)OCO2)c1ccccc1 | 17.6 |  | 10 | 11.7 | 207 |  |  |  |  |  |  |  |  |  |  |
